From ChEMBL document CHEMBL5291721, “A preclinical secondary pharmacology resource illuminates target-adverse drug reaction associations of marketed drugs” (Nat Commun, 2023) come the findings set out here.

The target of assay [1] is T1, Corticotropin-releasing factor receptor 1 (Homo sapiens, UniProt P34998).
T1 sequence (P34998 whole entry): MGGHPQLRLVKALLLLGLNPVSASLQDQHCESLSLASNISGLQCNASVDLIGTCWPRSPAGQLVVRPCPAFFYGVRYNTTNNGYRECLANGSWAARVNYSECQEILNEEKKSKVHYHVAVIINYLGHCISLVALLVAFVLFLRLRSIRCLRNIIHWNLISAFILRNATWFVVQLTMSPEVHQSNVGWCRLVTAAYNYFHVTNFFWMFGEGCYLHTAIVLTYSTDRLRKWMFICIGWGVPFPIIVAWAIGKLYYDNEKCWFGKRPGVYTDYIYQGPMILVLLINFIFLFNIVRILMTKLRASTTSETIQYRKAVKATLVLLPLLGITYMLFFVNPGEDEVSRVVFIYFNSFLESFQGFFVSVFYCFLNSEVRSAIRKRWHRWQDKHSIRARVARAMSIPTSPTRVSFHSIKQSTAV

In a further assay the target is Melanocortin receptor 3 (Homo sapiens, UniProt P41968).
Melanocortin receptor 3, sequence (P41968 whole entry): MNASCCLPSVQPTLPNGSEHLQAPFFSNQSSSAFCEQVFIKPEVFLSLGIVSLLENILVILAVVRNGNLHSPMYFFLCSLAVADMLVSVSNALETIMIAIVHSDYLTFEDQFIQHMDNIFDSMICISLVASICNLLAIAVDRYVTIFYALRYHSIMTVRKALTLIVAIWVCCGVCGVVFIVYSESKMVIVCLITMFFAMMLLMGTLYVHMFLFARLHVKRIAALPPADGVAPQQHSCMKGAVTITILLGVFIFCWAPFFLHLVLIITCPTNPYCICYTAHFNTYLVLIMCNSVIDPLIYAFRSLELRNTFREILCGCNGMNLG
Assay [2] concerns the target T2, Type-1 angiotensin II receptor (Homo sapiens, UniProt P30556).
T2 sequence (P30556 whole entry): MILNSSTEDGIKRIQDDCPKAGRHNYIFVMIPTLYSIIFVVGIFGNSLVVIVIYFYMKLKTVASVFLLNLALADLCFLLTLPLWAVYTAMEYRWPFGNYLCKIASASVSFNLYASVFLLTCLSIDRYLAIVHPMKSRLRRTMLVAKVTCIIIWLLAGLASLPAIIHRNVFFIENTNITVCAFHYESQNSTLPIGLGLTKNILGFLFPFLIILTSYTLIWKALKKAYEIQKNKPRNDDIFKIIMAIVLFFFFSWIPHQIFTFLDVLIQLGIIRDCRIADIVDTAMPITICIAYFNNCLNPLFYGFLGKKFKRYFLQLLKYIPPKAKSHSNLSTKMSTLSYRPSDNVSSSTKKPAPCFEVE

Assay [3] addresses Growth hormone secretagogue receptor type 1 (Homo sapiens, UniProt Q92847).
Assay [4] deals with Voltage-dependent N-type calcium channel subunit alpha-1B (Rattus norvegicus, UniProt Q02294). The class given is functional.
Voltage-dependent N-type calcium channel subunit alpha-1B, sequence (Q02294 whole entry): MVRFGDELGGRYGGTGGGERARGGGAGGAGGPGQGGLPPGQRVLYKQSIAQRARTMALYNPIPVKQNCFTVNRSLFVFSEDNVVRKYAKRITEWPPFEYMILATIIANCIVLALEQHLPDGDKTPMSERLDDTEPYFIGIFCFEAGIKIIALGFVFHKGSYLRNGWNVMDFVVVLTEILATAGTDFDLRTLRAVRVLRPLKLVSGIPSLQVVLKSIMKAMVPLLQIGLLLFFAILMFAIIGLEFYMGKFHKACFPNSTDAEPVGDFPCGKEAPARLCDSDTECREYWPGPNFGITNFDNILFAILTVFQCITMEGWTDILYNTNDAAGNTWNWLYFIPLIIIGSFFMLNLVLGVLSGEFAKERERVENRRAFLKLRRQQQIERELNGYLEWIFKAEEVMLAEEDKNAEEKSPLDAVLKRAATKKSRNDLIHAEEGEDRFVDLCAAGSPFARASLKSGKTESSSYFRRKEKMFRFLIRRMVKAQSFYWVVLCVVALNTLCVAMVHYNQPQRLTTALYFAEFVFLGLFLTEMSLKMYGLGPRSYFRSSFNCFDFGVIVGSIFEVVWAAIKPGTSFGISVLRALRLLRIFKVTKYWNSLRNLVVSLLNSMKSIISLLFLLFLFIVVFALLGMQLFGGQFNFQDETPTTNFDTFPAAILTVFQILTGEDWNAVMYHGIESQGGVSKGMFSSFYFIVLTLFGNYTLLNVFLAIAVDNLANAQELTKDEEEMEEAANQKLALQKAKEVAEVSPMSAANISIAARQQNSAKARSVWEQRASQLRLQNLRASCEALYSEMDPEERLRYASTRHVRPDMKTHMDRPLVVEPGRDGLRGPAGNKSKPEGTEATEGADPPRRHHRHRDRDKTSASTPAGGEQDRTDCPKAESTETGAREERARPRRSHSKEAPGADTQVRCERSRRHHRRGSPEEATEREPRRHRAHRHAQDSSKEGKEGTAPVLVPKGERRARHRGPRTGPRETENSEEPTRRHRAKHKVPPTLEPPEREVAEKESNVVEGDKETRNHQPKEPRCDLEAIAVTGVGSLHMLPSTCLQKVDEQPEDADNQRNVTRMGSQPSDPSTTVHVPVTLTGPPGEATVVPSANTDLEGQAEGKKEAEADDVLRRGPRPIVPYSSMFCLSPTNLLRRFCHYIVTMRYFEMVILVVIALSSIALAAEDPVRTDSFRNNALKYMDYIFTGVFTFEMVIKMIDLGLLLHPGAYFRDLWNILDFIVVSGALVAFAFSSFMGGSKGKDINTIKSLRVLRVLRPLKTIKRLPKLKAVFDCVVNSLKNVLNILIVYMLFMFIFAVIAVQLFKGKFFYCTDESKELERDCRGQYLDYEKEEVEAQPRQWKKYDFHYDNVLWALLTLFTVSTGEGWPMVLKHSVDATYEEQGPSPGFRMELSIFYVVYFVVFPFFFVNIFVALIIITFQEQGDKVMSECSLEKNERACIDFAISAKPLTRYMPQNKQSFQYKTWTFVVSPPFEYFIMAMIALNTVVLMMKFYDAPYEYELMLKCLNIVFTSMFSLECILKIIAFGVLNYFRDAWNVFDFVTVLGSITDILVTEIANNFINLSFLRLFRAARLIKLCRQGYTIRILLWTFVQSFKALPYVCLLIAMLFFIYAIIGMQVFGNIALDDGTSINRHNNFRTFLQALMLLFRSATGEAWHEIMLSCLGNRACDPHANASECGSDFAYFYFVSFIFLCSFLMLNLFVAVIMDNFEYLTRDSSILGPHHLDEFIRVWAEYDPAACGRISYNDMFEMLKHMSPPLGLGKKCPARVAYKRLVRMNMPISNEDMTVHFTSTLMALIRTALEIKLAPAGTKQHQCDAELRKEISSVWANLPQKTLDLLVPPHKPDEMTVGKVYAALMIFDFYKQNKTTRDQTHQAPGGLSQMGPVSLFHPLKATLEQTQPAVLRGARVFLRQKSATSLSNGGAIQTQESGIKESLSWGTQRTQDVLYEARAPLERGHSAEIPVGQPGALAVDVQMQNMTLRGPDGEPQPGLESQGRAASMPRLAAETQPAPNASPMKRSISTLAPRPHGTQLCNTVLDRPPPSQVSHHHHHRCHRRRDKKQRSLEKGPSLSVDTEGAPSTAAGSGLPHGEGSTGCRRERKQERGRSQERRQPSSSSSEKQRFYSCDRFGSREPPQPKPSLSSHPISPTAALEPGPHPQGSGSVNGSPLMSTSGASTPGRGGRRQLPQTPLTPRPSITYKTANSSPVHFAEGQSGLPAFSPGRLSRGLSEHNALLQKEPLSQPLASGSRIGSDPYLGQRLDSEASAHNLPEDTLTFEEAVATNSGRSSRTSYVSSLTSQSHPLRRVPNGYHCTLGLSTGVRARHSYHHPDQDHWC
In assay [5] the target is Beta-1 adrenergic receptor (Homo sapiens, UniProt P08588). Type of assay: functional.
Beta-1 adrenergic receptor, sequence (P08588 whole entry): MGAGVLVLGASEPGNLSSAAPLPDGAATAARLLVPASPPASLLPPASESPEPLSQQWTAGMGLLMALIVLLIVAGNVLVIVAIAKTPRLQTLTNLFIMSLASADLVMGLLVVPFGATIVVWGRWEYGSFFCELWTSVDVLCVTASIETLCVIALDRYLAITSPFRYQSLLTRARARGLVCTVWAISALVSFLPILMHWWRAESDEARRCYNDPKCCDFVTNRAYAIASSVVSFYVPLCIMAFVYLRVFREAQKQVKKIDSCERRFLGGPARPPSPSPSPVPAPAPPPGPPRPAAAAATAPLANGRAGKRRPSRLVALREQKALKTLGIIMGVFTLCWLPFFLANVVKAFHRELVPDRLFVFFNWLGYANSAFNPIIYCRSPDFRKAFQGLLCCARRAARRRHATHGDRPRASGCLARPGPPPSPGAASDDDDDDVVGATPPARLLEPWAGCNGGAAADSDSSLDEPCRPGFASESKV
A further assay deals with Motilin receptor (Homo sapiens, UniProt O43193).
Motilin receptor, sequence (O43193 whole entry): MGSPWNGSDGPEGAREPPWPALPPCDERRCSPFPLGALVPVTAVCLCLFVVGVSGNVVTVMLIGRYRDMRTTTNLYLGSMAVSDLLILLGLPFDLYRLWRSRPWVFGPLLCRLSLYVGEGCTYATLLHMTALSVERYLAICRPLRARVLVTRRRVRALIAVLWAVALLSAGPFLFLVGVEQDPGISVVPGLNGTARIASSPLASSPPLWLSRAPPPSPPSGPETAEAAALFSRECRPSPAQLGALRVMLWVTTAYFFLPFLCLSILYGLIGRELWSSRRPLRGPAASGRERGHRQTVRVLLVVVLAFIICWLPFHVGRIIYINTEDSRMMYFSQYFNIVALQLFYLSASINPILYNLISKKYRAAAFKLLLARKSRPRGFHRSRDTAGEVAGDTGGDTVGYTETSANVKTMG
The target of assay [6] is T3, Cholecystokinin receptor type A (Homo sapiens, UniProt P32238).
T3 sequence (P32238 whole entry): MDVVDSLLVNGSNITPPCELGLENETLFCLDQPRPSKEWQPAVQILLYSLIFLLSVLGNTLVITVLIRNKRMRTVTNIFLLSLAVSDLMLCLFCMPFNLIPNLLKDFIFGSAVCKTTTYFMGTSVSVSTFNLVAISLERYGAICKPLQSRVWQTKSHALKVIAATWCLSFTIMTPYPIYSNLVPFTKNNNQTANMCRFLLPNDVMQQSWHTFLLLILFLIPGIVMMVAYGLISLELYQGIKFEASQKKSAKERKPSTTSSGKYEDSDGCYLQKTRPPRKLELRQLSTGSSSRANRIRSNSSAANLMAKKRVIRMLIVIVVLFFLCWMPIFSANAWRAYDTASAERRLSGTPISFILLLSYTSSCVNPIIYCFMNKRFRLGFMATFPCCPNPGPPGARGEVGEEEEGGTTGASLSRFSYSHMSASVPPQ

For assay [7], the target named is T4, Gastric inhibitory polypeptide receptor (Homo sapiens, UniProt P48546).
T4 sequence (P48546 whole entry): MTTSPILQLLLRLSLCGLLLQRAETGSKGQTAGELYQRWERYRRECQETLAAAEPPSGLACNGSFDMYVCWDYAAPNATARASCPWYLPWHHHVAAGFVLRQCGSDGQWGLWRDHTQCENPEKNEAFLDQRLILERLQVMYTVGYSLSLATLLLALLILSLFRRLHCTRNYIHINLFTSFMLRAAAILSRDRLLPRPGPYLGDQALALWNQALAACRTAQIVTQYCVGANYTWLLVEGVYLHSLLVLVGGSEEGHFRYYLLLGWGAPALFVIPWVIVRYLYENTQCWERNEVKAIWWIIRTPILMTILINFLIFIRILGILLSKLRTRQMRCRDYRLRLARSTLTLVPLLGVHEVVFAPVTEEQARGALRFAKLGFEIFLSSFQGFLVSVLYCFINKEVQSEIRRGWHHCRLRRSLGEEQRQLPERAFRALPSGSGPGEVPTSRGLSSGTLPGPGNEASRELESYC

Assay [8] concerns the target T5, Muscarinic acetylcholine receptor M1 (Homo sapiens, UniProt P11229).
T5 sequence (P11229 whole entry): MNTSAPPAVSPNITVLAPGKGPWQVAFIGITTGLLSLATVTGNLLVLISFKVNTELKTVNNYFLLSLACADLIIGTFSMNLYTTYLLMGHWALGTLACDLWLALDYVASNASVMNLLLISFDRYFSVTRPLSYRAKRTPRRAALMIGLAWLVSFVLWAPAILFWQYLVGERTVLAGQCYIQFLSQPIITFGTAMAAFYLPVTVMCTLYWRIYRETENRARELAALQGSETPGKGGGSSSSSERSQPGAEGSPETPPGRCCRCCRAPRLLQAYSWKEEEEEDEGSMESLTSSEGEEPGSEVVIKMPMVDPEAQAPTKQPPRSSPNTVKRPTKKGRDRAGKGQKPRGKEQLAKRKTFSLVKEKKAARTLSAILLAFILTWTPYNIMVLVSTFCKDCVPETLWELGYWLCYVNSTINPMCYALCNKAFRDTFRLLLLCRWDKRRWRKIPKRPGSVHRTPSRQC
The class given is functional, cell-based.

The target of assay [9] is Gamma-aminobutyric acid receptor subunit alpha-1/alpha-2/beta-2/gamma-2 (Homo sapiens, UniProt P14867+P18507+P47869+P47870). The class given is functional, cell-based.
Assay [10] concerns the target T5, Muscarinic acetylcholine receptor M1. Type of assay: functional, cell-based. This is another data set of the same source.

The structures appear in SMILES notation. A value given as a limit tells only on which side of the number the result lay.
Note: assay procedure not described here.

Growth hormone secretagogue receptor type 1, sequence (Q92847 whole entry): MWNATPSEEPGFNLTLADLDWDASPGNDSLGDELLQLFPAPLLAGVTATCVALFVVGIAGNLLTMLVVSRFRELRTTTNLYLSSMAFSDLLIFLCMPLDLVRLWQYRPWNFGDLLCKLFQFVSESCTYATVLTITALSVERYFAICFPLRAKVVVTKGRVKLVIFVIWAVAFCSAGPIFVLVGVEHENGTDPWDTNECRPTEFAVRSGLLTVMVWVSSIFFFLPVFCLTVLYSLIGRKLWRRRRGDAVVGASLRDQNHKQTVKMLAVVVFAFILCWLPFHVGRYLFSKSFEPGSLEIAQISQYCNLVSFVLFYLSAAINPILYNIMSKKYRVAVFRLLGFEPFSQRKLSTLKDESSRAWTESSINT

For the compound `Cc1ccc(C)c(OCCCC(C)(C)C(=O)O)c1` [GEMFIBROZIL], the AC50 is over 30 µM in [1]; over 30 µM at Melanocortin receptor 3; over 30 µM in [2]; over 30 µM in assay [3]; over 10 µM in assay [4]; over 10 µM in [5]. Moreover, the AC50 on Motilin receptor was over 10 µM; in assay [6], over 30 µM; in [7], over 30 µM.
Take `O=C(O)Cc1ccccc1Nc1c(Cl)cccc1Cl` [DICLOFENAC]: the AC50 in assay [1] was over 30 µM; on Melanocortin receptor 3 it was over 30 µM; in [2], over 30 µM; in assay [3], over 30 µM; in assay [4] it was over 10 µM; in assay [5], over 10 µM. In addition, the figures for the AC50 (on Motilin receptor; in assay [6]; in assay [7]) were over 10 µM, over 30 µM and over 30 µM, respectively.
For `CC[C@H](C)C(=O)O[C@H]1C[C@@H](C)C=C2C=C[C@H](C)[C@H](CC[C@@H]3C[C@@H](O)CC(=O)O3)[C@H]21` [LOVASTATIN], the AC50 in assay [1] is over 30 µM; at Melanocortin receptor 3, over 30 µM; in [2] it was 39.8 µM; in [3], over 30 µM; in assay [4] it was over 10 µM; in assay [5], over 10 µM. Besides, the figures for the AC50 (at Motilin receptor; in assay [6]; in [7]) were over 10 µM, over 30 µM and over 30 µM, respectively.
As to `CC(C)[C@H](N)C(=O)OCCOCn1cnc2c(=O)[nH]c(N)nc21` [VALACYCLOVIR], the AC50 is over 30 µM in assay [1]; over 30 µM on Melanocortin receptor 3; over 30 µM in assay [2]; over 30 µM in [3]; over 10 µM in [4]; over 10 µM in assay [5]. For the same compound, the results for the AC50 (on Motilin receptor; in [6]; in [7]) were over 10 µM, over 30 µM and over 30 µM, respectively.
On to `CCCc1nc2c(C)cc(-c3nc4ccccc4n3C)cc2n1Cc1ccc(-c2ccccc2C(=O)O)cc1`, for which the AC50 was over 30 µM in [1]; over 30 µM at Melanocortin receptor 3; 17.6 µM in assay [8]; over 30 µM in assay [3]; over 10 µM in assay [4]; over 30 µM in assay [9]. The AC50 in [5] is over 30 µM; on Motilin receptor, over 30 µM; in assay [6] it was 2.43 µM; in [7] it was over 30 µM.
With `O=C1Cc2cc(CCN3CCN(c4nsc5ccccc45)CC3)c(Cl)cc2N1` [ZIPRASIDONE], the AC50 in assay [1] is over 30 µM; in [10], 12.9 µM; at Melanocortin receptor 3, over 30 µM; in assay [2], over 30 µM; in assay [8], over 30 µM; in assay [3], over 30 µM. Further, the AC50 is over 10 µM in assay [4]; over 10 µM in assay [5]; over 10 µM at Motilin receptor; over 30 µM in assay [6]; over 30 µM in assay [7].
For `CCCNC(=O)NS(=O)(=O)c1ccc(Cl)cc1` [CHLORPROPAMIDE], the AC50 was over 30 µM in [1]; over 30 µM on Melanocortin receptor 3; over 30 µM in [2]; over 30 µM in assay [3]; over 10 µM in [4]; over 10 µM in assay [5]. Moreover, the figures for the AC50 (on Motilin receptor; in [6]; in assay [7]) were over 10 µM, over 30 µM and over 30 µM, respectively.
As to `CN(CCOc1ccc(CC2SC(=O)NC2=O)cc1)c1ccccn1` (stereo not drawn) [ROSIGLITAZONE], the AC50 in assay [1] was over 30 µM; on Melanocortin receptor 3, 20.8 µM; in assay [2] it was 18 µM; in assay [3], over 30 µM; in [4], over 10 µM; in assay [5], over 30 µM. Further, the AC50 (at Motilin receptor; in assay [6]; in assay [7]) was over 30 µM throughout.
`CC(CN1c2ccccc2Sc2ccccc21)N(C)C` (stereo not drawn) [PROMETHAZINE]: the AC50 in [1] was over 30 µM; on Melanocortin receptor 3, 31.9 µM; in [2], over 30 µM; in assay [3] it was over 30 µM; in assay [4] it was over 10 µM; in assay [5], over 10 µM. Also, the figures for the AC50 (on Motilin receptor; in assay [6]; in assay [7]) were over 10 µM, over 30 µM and over 30 µM, respectively.
With `CCOc1nc2cccc(C(=O)O)c2n1Cc1ccc(-c2ccccc2-c2nnn[nH]2)cc1`, the AC50 was over 30 µM in [1]; over 30 µM at Melanocortin receptor 3; 0.0005 µM in assay [2]; over 30 µM in [3]; over 10 µM in [4]; over 30 µM in assay [9]. The AC50 (in assay [5]; at Motilin receptor; in assay [6]; in [7]) was over 30 µM each time.
Consider `O=C(O)Cc1ccccc1Oc1ccc(Cl)cc1Cl` [FENCLOFENAC], for which the AC50 in assay [1] was over 30 µM; in assay [10] it was 23.6 µM; on Melanocortin receptor 3, over 30 µM; in [2] it was over 30 µM; in [8], over 30 µM; in assay [3] it was over 30 µM. The AC50 in assay [4] is over 10 µM; in assay [5], over 10 µM; on Motilin receptor, over 10 µM; in [6], over 30 µM; in assay [7], over 30 µM.
`CC[C@@H](CO)NC(=O)[C@@H]1C=C2c3cccc4c3c(cn4C)C[C@H]2N(C)C1` [METHYSERGIDE]: the AC50 in [1] was over 30 µM; at Melanocortin receptor 3, over 30 µM; in [2], over 30 µM; in assay [3], over 30 µM; in [4], over 10 µM; at Motilin receptor, over 10 µM. For the same compound, the AC50 in assay [6] and in assay [7] was over 30 µM throughout.
